Experimental data taken from patent publication US20080015214A1 (priority 2005, published 2008).
One block for each molecule: values may come before it.

Assays:
Assay in all cases: biochemical
Type in all cases: binding
[1] = target: kappa (κ) opioid receptor (Homo sapiens, UniProt P41145); settings: 2C2 cell line membrane, U69593-H3 ligand
mu (μ) opioid receptor = mu (μ) opioid receptor (Homo sapiens, UniProt P35372)
[2] = target: human nociceptin receptor (ORL-1) (Homo sapiens, UniProt P41146)
Chain of human nociceptin receptor (ORL-1) (P41146 whole entry): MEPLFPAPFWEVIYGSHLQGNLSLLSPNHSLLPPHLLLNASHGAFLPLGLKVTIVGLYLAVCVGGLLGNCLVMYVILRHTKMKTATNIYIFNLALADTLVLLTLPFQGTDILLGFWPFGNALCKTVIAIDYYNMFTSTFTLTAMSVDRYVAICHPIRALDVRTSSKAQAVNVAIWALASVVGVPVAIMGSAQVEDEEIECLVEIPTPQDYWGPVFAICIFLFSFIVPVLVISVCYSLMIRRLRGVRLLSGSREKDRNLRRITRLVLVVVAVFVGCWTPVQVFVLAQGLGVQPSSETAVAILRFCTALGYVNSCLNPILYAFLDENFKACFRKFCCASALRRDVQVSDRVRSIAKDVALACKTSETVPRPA

Chain of mu (μ) opioid receptor (P35372 whole entry): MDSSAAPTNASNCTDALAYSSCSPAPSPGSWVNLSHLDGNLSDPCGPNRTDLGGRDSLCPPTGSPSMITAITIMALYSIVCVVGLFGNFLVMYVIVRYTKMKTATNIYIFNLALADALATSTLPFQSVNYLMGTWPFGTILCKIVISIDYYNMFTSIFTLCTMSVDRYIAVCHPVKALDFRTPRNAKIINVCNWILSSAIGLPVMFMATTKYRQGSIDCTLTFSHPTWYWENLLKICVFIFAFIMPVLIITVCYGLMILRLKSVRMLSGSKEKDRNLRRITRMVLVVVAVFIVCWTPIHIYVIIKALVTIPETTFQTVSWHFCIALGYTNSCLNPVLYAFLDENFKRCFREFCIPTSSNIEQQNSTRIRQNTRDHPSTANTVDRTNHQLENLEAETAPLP
Chain of kappa (κ) opioid receptor (P41145 whole entry): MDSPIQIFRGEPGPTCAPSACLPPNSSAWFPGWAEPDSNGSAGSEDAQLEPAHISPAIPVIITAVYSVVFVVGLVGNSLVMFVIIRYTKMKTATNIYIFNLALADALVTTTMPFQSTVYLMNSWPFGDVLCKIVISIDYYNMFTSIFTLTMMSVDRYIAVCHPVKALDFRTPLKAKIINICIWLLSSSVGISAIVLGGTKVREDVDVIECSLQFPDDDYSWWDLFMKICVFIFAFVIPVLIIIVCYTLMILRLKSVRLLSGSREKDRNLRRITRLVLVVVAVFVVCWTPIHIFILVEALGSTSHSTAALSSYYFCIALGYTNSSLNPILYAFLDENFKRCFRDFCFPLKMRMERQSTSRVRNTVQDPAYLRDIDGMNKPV

Structure (SMILES): OC1CN(C2Cc3cccc4cccc2c34)CCC1c1c[nH]c2ncccc12 (mixture of isomers) [Cpd 40, 1-acenaphthen-1-yl-4-(1 H-pyrrolo[2,3-b]pyridin-3-yl)-piperidin-3-ol]
- IC50 [1]: 4300 nM

Structure (SMILES): c1ccc2c(CN3CCC(c4c[nH]c5ncccc45)CC3)cccc2c1 [Cpd 33, 3-(1-naphthalen-1-ylmethyl-piperidin-4-yl)-1H-pyrrolo[2,3-b]pyridine]
- IC50 (mu (μ) opioid receptor): 345 nM
- IC50 [2]: 821 nM

Structure (SMILES): c1cc2c3c(cccc3c1)C(N1CCC(c3cn(C4Cc5cccc6cccc4c56)c4ncccc34)CC1)C2 (stereo not drawn) [Cpd 35, 1-acenaphthen-1-yl-3-(1-acenaphthen-1-yl-piperidin-4-yl)-1H-pyrrolo[2,3-b]pyridine]
- IC50 [1]: 840 nM

Second part, the molecule after the results:

- IC50 [2]: 3500 nM
Structure (SMILES): c1cnc2[nH]cc(C3CCN(CC4CCCCC4)CC3)c2c1 [Cpd 52, 3-(1-cyclohexylmethyl-piperidin-4-yl)-1H-pyrrolo [2,3-b]pyridine]

- IC50 (mu (μ) opioid receptor): 339 nM
Structure (SMILES): c1ccc(Oc2ccc(CN3CCC(c4c[nH]c5ncccc45)CC3)cc2)cc1 [Cpd 55, 3-[1-(4-phenoxy-benzyl)-piperidin-4-yl]-1H-pyrrolo[2,3-b]pyridine]
